Here are results for 26 compounds from patent US5773449A, “Thioquinolone compounds which have useful pharmaceutical activity” (Zenyaku Kogyo Kabushiki Kaisha, priority 1994, dated 1998).

≈ marks a conversion by molar mass, not a printed value. Bounds are passed on as bounds.

Common to all, as to type: cell-based
The test system of assay [1] is P.aeruginosa IFO 3445. The experiment in a line: Antibacterial Test 2: agar plate dilution method (aerobic MIC method), P.aeruginosa. To be noted: Pseudomonas aeruginosa, IFO3445, sensitive-disk agar medium-N. As to the method:
(§1) Then, tested were antibacterial activities of the typical compounds of the present invention against gram-positive and-negative bacteria other than Hp. MICs of the typical compounds of the present invention were determined in substantial accordance with agar plate dilution method (aerobic MIC method) based on Standard method of The Japan Society of Chemotherapy.
(§2) The respective test compound were dissolved in dimethyl sulfoxide (DMSO) and serially diluted twofold. These diluted solutions of the compounds were respectively added to sensitive-disk agar medium-N (manufactured by NISSUI SEIYAKU) to prepare agar plates for determination with concentration of 0.05-100 μg/ml.
(§3) The below-mentioned strains freezingly conserved at -135° C. were thawed in a warm bath (40° C.), cultured in a sensitivity-determining bouillon at 37° C. for 18-20 hours, and then diluted with the above-mentioned medium to prepare about 1.0×10^6CFU/ml of bacterial solution.
(§4) Inoculation was made by 5 μl by multi-inoculator (manufactured by SAKUMA SEISAKUSHO). Culturing was made under the same conditions as those of the pre-culturing and the MIC (unit: μg/ml) was determined by observing whether the bacteria grew or not.

Assay [2] has as its system S.aureus FDA 209P. The experiment in a line: Antibacterial Test 2: agar plate dilution method (aerobic MIC method), S.aureus. To be noted: Staphylococcus aureus, FDA209P, sensitive-disk agar medium-N. As to the method: as §1, §2, §3, §4
Assay [3] concerns M.luteus ATCC 9341. The experiment in a line: Antibacterial Test 2: agar plate dilution method (aerobic MIC method), M.luteus. The following applies: Micrococcus luteus, ATCC9341, sensitive-disk agar medium-N. As to the method:
as §1, §2, §3, §4

Assay [4] has as its system K.pneumoniae PCI 602. Kind of assay: Antibacterial Test 2: agar plate dilution method (aerobic MIC method), K.pneumoniae. The following applies: Klebsiella pneumoniae, PCI602, sensitive-disk agar medium-N. The protocol: as §1, §2, §3, §4
The test system of assay [5] is E.coli NIHJ JC-2. Kind of assay: Antibacterial Test 2: agar plate dilution method (aerobic MIC method), E.coli. The following applies: Escherichia coli, NIHJJC2, sensitive-disk agar medium-N. As to the method: as §1, §2, §3, §4
In assay [6] the test system is Helicobacter pylori standard strain ATCC 43526 (NCTC 11916). The experiment in a line: Antibacterial test 1: agar plate dilution method (anaerobic MIC method) against Hp. The following applies: 72 h; Helicobacter pylori ATCC 43526 (NCTC 11916); brucella agar + 7% horse blood, microaerobic, 37° C., 3 days. The protocol: Antibacterial test against Hp was performed in substantial accordance with agar plate dilution method (anaerobic MIC method) based on Standard method of The Japan Society of Chemotherapy to determine minimum inhibitory concentration (MIC) of the respective test compounds. The respective test compounds were sequentially dissolved in dimethyl sulfoxide (DMSO) and serially diluted twofold. […] Strain used for inoculation was Helicobacter pylori standard strain ATCC 43526 (NCTC 11916). For pre-culturing of bacteria to be inoculated, the above-mentioned strain freezingly conserved at -135° C. was thawed in a warm bath (40° C.), applied on a brucella agar medium containing 7% horse blood free from fibrin, and microaerobically cultured in a jar for anaerobic bacteria at 37° C. for 3 days. The solution of bacteria to be inoculated was prepared by collecting colonies grown on the culture medium and suspending the same in the brucella broth.

Assay [7] has as its system B.subtilis PCI 219. Kind of assay: Antibacterial Test 2: agar plate dilution method (aerobic MIC method), B.subtilis. The following applies: Bacillus subtilis, PCI219, sensitive-disk agar medium-N. As to the method:
as §1, §2, §3, §4

Assay [8] concerns E.faecalis RIMD 3336001. Kind of assay: Antibacterial Test 2: agar plate dilution method (aerobic MIC method), E.faecalis. To be noted: Enterococcus faecalis, RIMD3336001, sensitive-disk agar medium-N. As to the method:
as §1, §2, §3, §4

Take `Cc1cccc2c(=S)cc[nH]c12` [compound 41, 8-Methylquinoline-4(1H)-thione]: the MIC – broadly, the smallest concentration in the dilution series that meets the test's criterion for growth inhibition – in assay [1] was > 100 µg/mL; in assay [2], > 100 µg/mL; in assay [3], > 100 µg/mL; in assay [4] it was > 100 µg/mL; in assay [5] it was > 100 µg/mL; in assay [6], 0.78 µg/mL. Also, the minimum inhibitory concentration (MIC) in assay [7] and in assay [8] was > 100 µg/mL in each case.

On to `O=[N+]([O-])c1cccc2c(=S)cc[nH]c12` [compound 7, 8-Nitroquinoline-4(1H)-thione], for which, in assay [6], the minimum inhibitory concentration (MIC) is 6.25 µg/mL.

`S=c1cc[nH]c2cc(SCc3ccccc3)ccc12` [compound 37, 7-Benzylthioquinoline-4(1H)-thione]: the MIC in assay [1] is > 100 µg/mL; in assay [2] it was > 100 µg/mL; in assay [3], > 100 µg/mL; in assay [4] it was > 100 µg/mL; in assay [5], > 100 µg/mL; in assay [6], 0.78 µg/mL. Besides, the MIC in assay [7] and in assay [8] was > 100 µg/mL each time.

In the case of `S=c1cc[nH]c2c3c(ccc12)CCCC3` [compound 40, 7,8,9,10-Tetrahydrobenzo[h]quinoline-4(1H)-thione], the minimum inhibitory concentration (MIC) in assay [1] is > 100 µg/mL; in assay [2], > 100 µg/mL; in assay [3], > 100 µg/mL; in assay [4], > 100 µg/mL; in assay [5], > 100 µg/mL; in assay [6], 0.2 µg/mL. Also, the MIC in assay [7] and in assay [8] was > 100 µg/mL in each case.

In the case of `CC(C)c1ccc2c(=S)cc[nH]c2c1` [compound 2, 7-Isopropylquinoline-4(1H)-thione], the MIC in assay [1] is > 100 µg/mL; in assay [2] it was > 100 µg/mL; in assay [3], > 100 µg/mL; in assay [4], > 100 µg/mL; in assay [5] it was > 100 µg/mL; in assay [6] it was 1.56 µg/mL. For the same compound, the MIC in assay [7] and in assay [8] was > 100 µg/mL each time.

With `CCCCCCc1ccc2c(=S)cc[nH]c2c1` [compound 15, 7-n-Hexylquinoline-4(1H)-thione], the minimum inhibitory concentration (MIC) in assay [1] is > 100 µg/mL; in assay [2], > 100 µg/mL; in assay [3], > 100 µg/mL; in assay [4], > 100 µg/mL; in assay [5], > 100 µg/mL; in assay [6], 0.39 µg/mL. Further, the minimum inhibitory concentration (MIC) in assay [7] and in assay [8] was > 100 µg/mL throughout.

In the case of `O=[N+]([O-])c1ccc2c(=S)cc[nH]c2c1` [compound 19, 7-Nitroquinoline-4(1H)-thione], in assay [6], the MIC amounted to 3.13 µg/mL.

On to `CCOc1ccc2c(=S)cc[nH]c2c1` [compound 22, 7-Ethoxyquinoline-4(1H)-thione], for which the MIC is > 100 µg/mL in assay [1]; > 100 µg/mL in assay [2]; > 100 µg/mL in assay [3]; > 100 µg/mL in assay [4]; > 100 µg/mL in assay [5]; 3.13 µg/mL in assay [6]. Further, the MIC in assay [7] and in assay [8] was > 100 µg/mL throughout.

For `CCCCCCCCCCCCc1ccc2c(=S)cc[nH]c2c1` [compound 30, 7-Dodecylquinoline-4(1H)-thione], the MIC was > 100 µg/mL in assay [1]; > 100 µg/mL in assay [2]; 100 µg/mL (≈ 303 µM) in assay [3]; > 100 µg/mL in assay [4]; > 100 µg/mL in assay [5]; 1.56 µg/mL in assay [6]. For the same compound, the MIC in assay [7] and in assay [8] was > 100 µg/mL throughout.

Turning to `S=c1cc[nH]c2cc(OCc3ccccc3)ccc12` [compound 25, 7-Benzyloxyquinoline-4(1H)-thione], the minimum inhibitory concentration (MIC) in assay [6] worked out at 6.25 µg/mL.

For the compound `COc1ccc2c(=S)cc[nH]c2c1` [compound 1, 7-Methoxyquinoline-4(1H)-thione], the MIC is > 100 µg/mL in assay [1]; 50 µg/mL (≈ 261 µM) in assay [2]; > 100 µg/mL in assay [3]; > 100 µg/mL in assay [4]; > 100 µg/mL in assay [5]; 0.39 µg/mL in assay [6]. Also, the MIC in assay [7] and in assay [8] was > 100 µg/mL each time.

For `CC(=O)OCc1ccc2c(=S)cc[nH]c2c1` [compound 29, 7-Acetoxymethylquinoline-4(1H)-thione], the MIC in assay [1] was > 100 µg/mL; in assay [2] it was 25 µg/mL (≈ 107 µM); in assay [3], 50 µg/mL (≈ 214 µM); in assay [4], > 100 µg/mL; in assay [5], > 100 µg/mL; in assay [6], 0.78 µg/mL. The MIC in assay [7] is 100 µg/mL (≈ 429 µM); in assay [8] it was 50 µg/mL (≈ 214 µM).

Take `CCCCCCCCCCCCOc1ccc2c(=S)cc[nH]c2c1` [compound 52, 7-Dodecyloxyquinoline-4(1H)-thione]: in assay [6], the MIC was 6.25 µg/mL.

As to `CC(C)Oc1ccc2c(=S)cc[nH]c2c1` [compound 23, 7-Isopropyloxyquinoline-4(1H)-thione], the MIC in assay [1] is > 100 µg/mL; in assay [2], > 100 µg/mL; in assay [3], > 100 µg/mL; in assay [4] it was > 100 µg/mL; in assay [5], > 100 µg/mL; in assay [6], 0.78 µg/mL. Moreover, the MIC in assay [7] and in assay [8] was > 100 µg/mL each time.

With `CN(C)c1ccc2c(=S)cc[nH]c2c1` [compound 48, 7-N,N-Dimethylaminoquinoline-4(1H)-thione], the MIC was > 100 µg/mL in assay [1]; 100 µg/mL (≈ 489 µM) in assay [2]; > 100 µg/mL in assay [3]; > 100 µg/mL in assay [4]; > 100 µg/mL in assay [5]; 0.2 µg/mL in assay [6]. For the same compound, the MIC in assay [7] and in assay [8] was > 100 µg/mL throughout.

With `S=c1cc[nH]c2cc(N3CCOCC3)ccc12` [compound 36, 7-Morpholinoquinoline-4(1H)-thione], the MIC in assay [1] was > 100 µg/mL; in assay [2], 100 µg/mL (≈ 406 µM); in assay [3], 100 µg/mL (≈ 406 µM); in assay [4], > 100 µg/mL; in assay [5], > 100 µg/mL; in assay [6], 0.39 µg/mL. Besides, the MIC was 100 µg/mL (≈ 406 µM) in assay [7] and > 100 µg/mL in assay [8].

Turning to `CN(C)Cc1ccc2c(=S)cc[nH]c2c1` [compound 33, 7-N,N-Dimethylaminomethylquinoline-4(1H)-thione], the MIC in assay [6] was determined as 6.25 µg/mL.

As for `CC(C)Sc1ccc2c(=S)cc[nH]c2c1` [compound 49, 7-Isopropylthioquinoline-4(1H)-thione], the minimum inhibitory concentration (MIC) in assay [1] is > 100 µg/mL; in assay [2] it was > 100 µg/mL; in assay [3] it was > 100 µg/mL; in assay [4] it was > 100 µg/mL; in assay [5] it was > 100 µg/mL; in assay [6], 0.39 µg/mL. For the same compound, the MIC in assay [7] and in assay [8] was > 100 µg/mL each time.

With `S=c1cc[nH]c2cc(Cc3ccccc3)ccc12` [compound 47, 7-Benzylquinoline-4(1H)-thione], the MIC in assay [1] is > 100 µg/mL; in assay [2], > 100 µg/mL; in assay [3] it was 50 µg/mL (≈ 199 µM); in assay [4], > 100 µg/mL; in assay [5], > 100 µg/mL; in assay [6], 0.2 µg/mL. Besides, the MIC in assay [7] and in assay [8] was > 100 µg/mL throughout.

On to `COc1cccc2c(=S)cc[nH]c12` [compound 42, 8-Methoxyquinoline-4(1H)-thione], for which the MIC in assay [6] came out at 0.39 µg/mL.

Consider `S=c1cc[nH]c2c1ccc1ccccc12` [compound 39, Benzo[h]quinoline-4(1H)-thione], for which the MIC in assay [1] was > 100 µg/mL; in assay [2], > 100 µg/mL; in assay [3], > 100 µg/mL; in assay [4], > 100 µg/mL; in assay [5], > 100 µg/mL; in assay [6] it was 0.39 µg/mL. The MIC in assay [7] and in assay [8] was > 100 µg/mL throughout.

In the case of `S=c1cc[nH]c2c1ccc1cccnc12` [compound 45, 1,10-Phenanthroline-4(1H)-thione], the minimum inhibitory concentration (MIC) in assay [6] was found to be 0.39 µg/mL.

For `CC(=O)c1ccc2c(=S)cc[nH]c2c1` [compound 13, 7-Acetylquinoline-4(1H)-thione], the MIC in assay [6] came out at 1.56 µg/mL.

For the compound `Cc1ccc2c(=S)cc[nH]c2c1` [compound 11, 7-Methylquinoline-4(1H)-thione], the MIC in assay [6] was 0.39 µg/mL.

With `NC(=O)c1ccc2c(=S)cc[nH]c2c1` [compound 12, 7-Carbamoylquinoline-4(1H)-thione], the MIC in assay [6] turned out to be 6.25 µg/mL.

With `S=c1cc[nH]c2cc(-c3ccc4ccccc4c3)ccc12` [compound 46, 7-(2-Naphtyl)quinoline-4(1H)-thione], the MIC in assay [6] is 3.13 µg/mL.
